Measured values reported in the supplement of paper PMC10307832.

Legend:
Experiment in all cases: relative viability (nuclei count vs DMSO), 5 days (fraction); higher = more cells survive
EKVX = test system: EKVX
Method in brief: (§1)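 Dosing by pin tool came one day after lung cancer cell lines were seeded in 1536-well plates, using either one drug or a fixed anchor-drug dose plus five library-drug doses (not always all listed) in √10 steps. After 5 days, nuclei were counted on 4× images. Relative viability is treated-well nuclei count divided by vehicle-well nuclei count, and values are medians of duplicate plates.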

HARA = test system: HARA
Method in brief: as §1

LK-2 = test system: LK-2
Method in brief: as §1

NCI-H2009 = test system: NCI-H2009
Method in brief: as §1

BEN = test system: BEN
Method in brief: as §1

201T = test system: 201T
Method in brief: as §1

NCI-H661 = test system: NCI-H661
Method in brief: as §1

ABC-1 = test system: ABC-1
Method in brief: as §1

NCI-H2170 = test system: NCI-H2170
Method in brief: as §1

NCI-H1666 = test system: NCI-H1666
Method in brief: as §1

NCI-H441 = test system: NCI-H441
Method in brief: as §1

HCC-366 = test system: HCC-366
Method in brief: as §1

NCI-H838 = test system: NCI-H838
Method in brief: as §1

NCI-H1650 = test system: NCI-H1650
Method in brief: as §1

COR-L23 = test system: COR-L23
Method in brief: as §1

SW 900 = test system: SW 900
Method in brief: as §1

NCI-H1437 = test system: NCI-H1437
Method in brief: as §1

NCI-H727 = test system: NCI-H727
Method in brief: as §1

CAL-12T = test system: CAL-12T
Method in brief: as §1

NCI-H3122 = test system: NCI-H3122
Method in brief: as §1

PC-14 = test system: PC-14
Method in brief: as §1

COR-L 105 = test system: COR-L 105
Method in brief: as §1

LU99A = test system: LU99A
Method in brief: as §1

NCI-H2023 = test system: NCI-H2023
Method in brief: as §1

In the case of `Clc1ccc(Nc2nnc(Cc3ccncc3)c3ccccc23)cc1` [Vatalanib] + Cc1cc(Nc2cc(N3CCN(C)CC3)nc(Sc3ccc(NC(=O)C4CC4)cc3)n2)n[nH]1 [Tozasertib] (partner 0.1 µM), the relative viability (EKVX; first compound 0.04 µM) is reported as 0.392, the relative viability (EKVX; first compound 0.1265 µM) is reported as 0.363 and the relative viability (EKVX; first compound 0.4 µM) is reported as 0.427. It also gave a relative viability (EKVX; first compound 4 µM) of 0.343, a relative viability (HARA; first compound 0.04 µM) of 0.0991 and a relative viability (HARA; first compound 0.1265 µM) of 0.11. For the same compound, the relative viability (HARA; first compound 0.4 µM) was 0.108, the relative viability (HARA; first compound 1.265 µM) was 0.0945 and the relative viability (HARA; first compound 4 µM) was 0.112. The relative viability (LK-2; first compound 0.04 µM) was 0.164, the relative viability (LK-2; first compound 0.1265 µM) was 0.161 and the relative viability (LK-2; first compound 0.4 µM) was 0.173. It also gave a relative viability (LK-2; first compound 1.265 µM) of 0.182, a relative viability (LK-2; first compound 4 µM) of 0.203 and a relative viability (NCI-H2009; first compound 0.04 µM) of 0.752. It also gave a relative viability (NCI-H2009; first compound 0.1265 µM) of 0.678, a relative viability (NCI-H2009; first compound 0.4 µM) of 0.864 and a relative viability (NCI-H2009; first compound 1.265 µM) of 0.739. The relative viability (NCI-H2009; first compound 4 µM) was 0.682, the relative viability (BEN; first compound 0.04 µM) was 0.464 and the relative viability (BEN; first compound 0.1265 µM) was 0.535. It also gave a relative viability (BEN; first compound 0.4 µM) of 0.557, a relative viability (BEN; first compound 1.265 µM) of 0.439 and a relative viability (BEN; first compound 4 µM) of 0.412. It also gave a relative viability (201T; first compound 0.04 µM) of 0.932, a relative viability (201T; first compound 0.1265 µM) of 0.943 and a relative viability (201T; first compound 0.4 µM) of 0.985. It also gave a relative viability (201T; first compound 1.265 µM) of 0.896, a relative viability (201T; first compound 4 µM) of 0.916 and a relative viability (NCI-H661; first compound 0.04 µM) of 0.357. It also gave a relative viability (NCI-H661; first compound 0.1265 µM) of 0.363, a relative viability (NCI-H661; first compound 0.4 µM) of 0.331 and a relative viability (NCI-H661; first compound 1.265 µM) of 0.357. It also gave a relative viability (NCI-H661; first compound 4 µM) of 0.366, a relative viability (ABC-1; first compound 0.04 µM) of 0.184 and a relative viability (ABC-1; first compound 0.1265 µM) of 0.166. It also gave a relative viability (ABC-1; first compound 1.265 µM) of 0.177, a relative viability (ABC-1; first compound 4 µM) of 0.207 and a relative viability (NCI-H2170; first compound 0.04 µM) of 0.768. It also gave a relative viability (NCI-H2170; first compound 0.1265 µM) of 0.706, a relative viability (NCI-H2170; first compound 0.4 µM) of 0.796 and a relative viability (NCI-H2170; first compound 1.265 µM) of 0.677. The relative viability (NCI-H2170; first compound 4 µM) was 0.777, the relative viability (NCI-H1666; first compound 0.04 µM) was 0.617 and the relative viability (NCI-H1666; first compound 0.1265 µM) was 0.569. The relative viability (NCI-H1666; first compound 0.4 µM) was 0.615, the relative viability (NCI-H1666; first compound 1.265 µM) was 0.568 and the relative viability (NCI-H1666; first compound 4 µM) was 0.55. It also gave a relative viability (NCI-H441; first compound 0.04 µM) of 0.847, a relative viability (NCI-H441; first compound 0.1265 µM) of 0.746 and a relative viability (NCI-H441; first compound 0.4 µM) of 0.643. For the same compound, the relative viability (NCI-H441; first compound 1.265 µM) was 0.659, the relative viability (NCI-H441; first compound 4 µM) was 0.598 and the relative viability (HCC-366; first compound 0.04 µM) was 0.119. It also gave a relative viability (HCC-366; first compound 0.1265 µM) of 0.0909, a relative viability (HCC-366; first compound 0.4 µM) of 0.161 and a relative viability (HCC-366; first compound 1.265 µM) of 0.103. The relative viability (HCC-366; first compound 4 µM) was 0.095, the relative viability (NCI-H838; first compound 0.04 µM) was 0.249 and the relative viability (NCI-H838; first compound 0.1265 µM) was 0.28. It also gave a relative viability (NCI-H838; first compound 0.4 µM) of 0.302, a relative viability (NCI-H838; first compound 1.265 µM) of 0.228 and a relative viability (NCI-H838; first compound 4 µM) of 0.295. For the same compound, the relative viability (NCI-H1650; first compound 0.04 µM) was 0.398, the relative viability (NCI-H1650; first compound 0.1265 µM) was 0.246 and the relative viability (NCI-H1650; first compound 0.4 µM) was 0.438. It also gave a relative viability (NCI-H1650; first compound 1.265 µM) of 0.37, a relative viability (NCI-H1650; first compound 4 µM) of 0.425 and a relative viability (COR-L23; first compound 0.04 µM) of 0.232. The relative viability (COR-L23; first compound 0.1265 µM) was 0.194, the relative viability (COR-L23; first compound 0.4 µM) was 0.206 and the relative viability (COR-L23; first compound 1.265 µM) was 0.168. For the same compound, the relative viability (COR-L23; first compound 4 µM) was 0.173, the relative viability (SW 900; first compound 0.1265 µM) was 0.563 and the relative viability (SW 900; first compound 0.4 µM) was 0.68. It also gave a relative viability (SW 900; first compound 1.265 µM) of 0.482, a relative viability (SW 900; first compound 4 µM) of 0.572 and a relative viability (NCI-H1437; first compound 0.04 µM) of 0.409. It also gave a relative viability (NCI-H1437; first compound 0.1265 µM) of 0.353, a relative viability (NCI-H1437; first compound 0.4 µM) of 0.41 and a relative viability (NCI-H1437; first compound 1.265 µM) of 0.437. For the same compound, the relative viability (NCI-H1437; first compound 4 µM) was 0.392, the relative viability (NCI-H727; first compound 0.04 µM) was 0.6 and the relative viability (NCI-H727; first compound 0.1265 µM) was 0.658. It also gave a relative viability (NCI-H727; first compound 0.4 µM) of 0.472, a relative viability (NCI-H727; first compound 1.265 µM) of 0.624 and a relative viability (NCI-H727; first compound 4 µM) of 0.533. It also gave a relative viability (CAL-12T; first compound 0.04 µM) of 0.307, a relative viability (CAL-12T; first compound 0.1265 µM) of 0.297 and a relative viability (CAL-12T; first compound 0.4 µM) of 0.304. For the same compound, the relative viability (CAL-12T; first compound 1.265 µM) was 0.266, the relative viability (CAL-12T; first compound 4 µM) was 0.277 and the relative viability (NCI-H3122; first compound 0.04 µM) was 0.401. It also gave a relative viability (NCI-H3122; first compound 0.1265 µM) of 0.358, a relative viability (NCI-H3122; first compound 1.265 µM) of 0.378 and a relative viability (NCI-H3122; first compound 4 µM) of 0.385. It also gave a relative viability (PC-14; first compound 0.04 µM) of 0.625, a relative viability (PC-14; first compound 0.1265 µM) of 0.523 and a relative viability (PC-14; first compound 1.265 µM) of 0.51. The relative viability (PC-14; first compound 4 µM) was 0.592, the relative viability (COR-L 105; first compound 0.04 µM) was 0.339 and the relative viability (COR-L 105; first compound 0.1265 µM) was 0.344. For the same compound, the relative viability (COR-L 105; first compound 0.4 µM) was 0.451, the relative viability (COR-L 105; first compound 1.265 µM) was 0.35 and the relative viability (COR-L 105; first compound 4 µM) was 0.362. It also gave a relative viability (LU99A; first compound 0.04 µM) of 0.282, a relative viability (LU99A; first compound 0.1265 µM) of 0.289 and a relative viability (LU99A; first compound 0.4 µM) of 0.305. It also gave a relative viability (LU99A; first compound 1.265 µM) of 0.266, a relative viability (LU99A; first compound 4 µM) of 0.286 and a relative viability (NCI-H2023; first compound 0.04 µM) of 0.374. It also gave a relative viability (NCI-H2023; first compound 0.1265 µM) of 0.377, a relative viability (NCI-H2023; first compound 0.4 µM) of 0.424 and a relative viability (NCI-H2023; first compound 1.265 µM) of 0.287. The relative viability (NCI-H2023; first compound 4 µM) was 0.241.
